{"source": "patent US20120237614A1", "about": "“PEPTIDE ABLE TO DISRUPT THE PROTEIN COMPLEX BETWEEN THE HIS273 MUTADED P53 PROTEIN AND THE ONCOSUPPRESSIVE P73 PROTEIN IN TUMOR CELLS AND THERAPEUTIC USES THEREOF” (priority 2009, published 2012)", "key": {"[1]": {"test_system": "m-p53 His273 inhibition on p73 transcription activity", "experiment": "Transactivation test with pLUC-BAX reporter in transiently transfected H1299 cells", "format": "cell-based, human", "details": "peptides 20 μM each", "experimental": "(A) MDA-MB-468 (5×10^5) cells have been transfected using a lipofectamine containing mixture, βgal expression vector, which normalizes transfection efficiency, and SIMPI peptide (20 μM). Total cellular lysates (1 mg), have been immunoprecipitated with antibodies directed against p73 and immunoglobulins (IgG). Immunoprecipitates and an aliquot (50 μg) of total lysate after 12% acrylamide gel electrophoretic run have been transferred on nitrocellulose membrane and labelled with antibodies shown in the figure. (B) MDA-MB-468 cells, have been transfected using SIMP1 and SIMP5,6. peptides. Successively, cells have been washed and stimulated with 3 μM Adriamycin. Total obtained lysates (30 μg) have been assayed for the expression of PARP and BAX apoptotic proteins. Lysate has been normalized by assaying γ-tubulin expression. (C-D). Transactivation tests have been carried out by transient transfection of H1299 cells using a mixture containing lipofectamine, SIMP1, SIMP5,6 indicated plasmids (20 μM each) together with pLUC-BAX reporter vector. To each reaction mixture an equal amount of […] expression vector was added, in order to normalize the transfection efficiency. […]\nTo this end, we have analyzed the ability in blocking the His273 p53 induced inhibition on transcription activity. […]"}, "[2]": {"test_system": "MDA-MB-468 cells (His-273 p53 mutation)", "experiment": "Transactivation test (pLUC-BAX, pLUC-p21) in Adriamycin treated MDA-MB-468 cells", "format": "cell-based, human", "details": "MDA-MB-468, 3 μM Adriamycin 24 hours post-transfection, luciferase reporter", "experimental": "MDA-MB-468 cells have been transfected using a mixture containing lipofectamine, pLUC-BAX plasmid, β-galactosidase expression vector, SIMP1 and SIMP control peptides. The cells, 24 hours post-transfection, have been treated with 3 μM Adriamycin.\nMDA-MB-468 cells have been transfected using a mixture containing lipofectamine, pLUC-BAX plasmid, pLUC-p21, β-galactosidase expression vector, SIMP1 peptides and SIMP1M and SIMP1KO derived mutant thereof. The cells, 24 hours post-transfection, have been treated with 3 μM Adriamicyn and then processed.\nSKBR3, HT-29, MDA-MB-468 cell lines have been transfected with Lipofectamine 2000 according to the supplier instructions (InVitrogen).\nCells (1.5×10^5) have been transiently transfected using SIMP peptides, expression plasmids and reporter constructs as internal controls for transfection efficiency. After the transfection, SKBR3, HT-29 and MDA-MB-468 have been incubated with 3 μM ADR over 24 hours. Cells have been washed with cold PBS and re-suspended in lysis buffer (Promega) and incubated for 10 min at room temp. Insoluble material has been centrifuged and luciferase activity has been determined using a commercial kit with a luminometer (Turner)."}, "mutp53 His-273 protein": {"target": "T1, mutp53 His-273 protein (Homo sapiens, UniProt P04637, R273H)", "T1 construct": "Total extracts deriving from SKBR3, (His-175) HT29, (His-273) and H1299 (p53 free) tumour cells; endogenous in cells; host or cells: HT29 total cell extract", "experiment": "Dot immunobinding test with total cell extracts", "format": "binding", "details": "total extracts 1 mg, peptide on nitrocellulose membrane", "experimental": "(A) Total extracts deriving from SKBR3, (His-175) HT29, (His-273) and H1299 (p53 free) tumour cells have been incubated (1 mg) on SIMP1 and SIMPIKO peptide labelled nitrocellulose membrane and Dot Blot analysed. In (B) the membranes have been incubated with 20 μg of wild type WT GST-p53 purified protein or GST-p53 His-175, GST-p53-His-175, 74-298 or GST alone. In both experiments dots have been detected by labelling the membranes with anti-p53 (DO1) antibody\nNitrocellulose membranes have been cut, washed with water and blotted on the paper filters. The peptides at 250 mM concentration have been transferred on membrane. Labelled membrane has been washed for 10 min. with TBST buffer (10 mM Tris-HCl pH 7.4, 150 mM NaCl, 0.05% (v/v) Tween-20) and then blocked for 45 min with TBST/5% milk. Then the membranes have been incubated for 6 hours at 4° C. in shaker with 1 mg of total protein extract or 20 μg of GST fusion purified proteins. Successively the membranes have been washed with TBST buffer and decorated with anti-p53 antibody (DO1) as a primary antibody. As secondary antibody horse peroxidase conjugated goat antibody has been used. Immunolabelled lanes have been detected using chemiluminescence analysis (Pierce).\nThe membranes decorated with SIMP peptides also have been incubated with GST-p53 His175, GST p53His74-298, GST WTp53 fusion proteins, GST control."}, "HT29 cells": {"test_system": "HT29 cells", "experiment": "In vivo tumorigenicity test (xenograft of peptide transfected HT29 cells)", "details": "naked mice, s.c. 5×10^5 peptide transfected cells/mouse, 5 weeks", "experimental": "In order to assay SIMP1 in vivo antitumor activity nu/nu […] mice were administered subcutaneously with SIMP1, SIMP1KO and SIMP5M transfected HT29 cells (5.0×10^5 cells/mouse). Tumour growth has been monitored over 5 weeks.\nXenograft assays have been carried out by administration to naked mice subcutaneous injections containing 5×10^5 cells/mouse of SIMP1, SIMP1KO and SIMP5M peptide transfected colon and rectum tumour human cell line (nu/nu CD1 Charles River mice). The tumour growth together with animal body weight is monitored for 5 weeks in order to estimate the chronic toxicity\nThe experiments have been carried out by administration to naked mouse (nu/nu CD1 Charles River mice) subcutaneous injections containing 5×10^5 cells/mouse. The tumour growth has been monitored together with animal body weight for 5 weeks in order to estimate possible not occurred chronic toxic effects (FIG. 5)."}}, "note": "Entries after “also recorded” stand apart in the source; their conditions may differ."}
{"sequence": "FQQSSTAKSATW (p73 SIMP (aa 131-142)) [SIMP1]", "values": [{"measurement": "restoration of p73 transcription activity inhibited by m-p53 His273", "setting": "[1]", "result": "modify mutated p53/p73 protein complex restoring p73 oncosuppressive functions; also recorded: blocked the m-p53 His273 inhibition on p73 transcription activity"}, {"measurement": "Adriamycin chemosensitivity / p73 transcription response", "setting": "[2]", "result": "increases the Adriamycin sensitivity; also recorded: increase Adriamycin chemosensitivty; also recorded: increased p73 transcription response as an adriamycin response"}, {"measurement": "direct binding to mutp53 His-273 (dot blot, anti-p53 DO1)", "setting": "mutp53 His-273 protein", "result": "binds directly the mutp53 His-273 protein"}, {"measurement": "tumour growth (tumour size) in vivo", "setting": "HT29 cells", "result": "tumour growth is decreased; also recorded: meaningful reduction of the growth (tumour size)"}]}
